In data set [1] the target is α-glucosidase from Saccharomyces cerevisiae (EC 3.2.1.20) (Saccharomyces cerevisiae, UniProt P53341). Put plainly: biochemical. To be noted: for IC50: mean ± SD, quadruplicate, PBS pH 6.8, 37°C, 5% DMSO, read-out: α-glucosidase inhibition (IC50 μM). Type of data set: biochemical.
The next data set addresses T1, α-amylase (Sus scrofa, UniProt P00690).
T1 construct: α-amylase from hog pancreas (EC 3.2.1.1); purchased Sigma-Aldrich; host or cells: hog pancreas
T1 sequence (P00690 16-511): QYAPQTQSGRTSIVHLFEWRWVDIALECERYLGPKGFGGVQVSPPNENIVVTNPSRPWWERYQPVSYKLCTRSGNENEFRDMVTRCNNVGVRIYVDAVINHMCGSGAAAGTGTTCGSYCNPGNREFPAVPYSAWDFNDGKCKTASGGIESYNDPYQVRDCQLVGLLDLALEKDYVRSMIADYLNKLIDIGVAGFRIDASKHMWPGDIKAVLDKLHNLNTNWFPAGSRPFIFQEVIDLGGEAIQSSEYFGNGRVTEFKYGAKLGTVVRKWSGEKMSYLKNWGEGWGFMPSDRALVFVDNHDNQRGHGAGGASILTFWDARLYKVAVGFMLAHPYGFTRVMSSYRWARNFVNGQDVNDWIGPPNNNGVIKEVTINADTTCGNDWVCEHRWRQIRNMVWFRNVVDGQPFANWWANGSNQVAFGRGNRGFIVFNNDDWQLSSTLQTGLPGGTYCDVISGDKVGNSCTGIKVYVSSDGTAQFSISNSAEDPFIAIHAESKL
Kind of data set: Inhibition kinetics assay against α-amylase. Type of data set: biochemical, hog. As to the method:
All experiments were carried out in quadruplicate.
(§1) The inhibition kinetics of 4i and 4o against α-glucosidase and α-amylase, respectively, was investigated using a similar aforementioned inhibition assay method. The enzyme inhibitory kinetics was obtained by the plots of the enzymatic reaction rate vs. enzyme concentration with or without the inhibitor, and the substrate inhibitory kinetics was measured using the Lineweaver–Burk plot of the enzymatic reaction rate vs. substrate concentration with or without the inhibitor.

In another data set the test system is HepG2 cells. Put plainly: Cell cytotoxicity assay, HepG2. Type of data set: cell-based. The settings on record: under a concentration of 100 μM.
In the next data set the test system is 3T3-L1 cells. Put plainly: Cell cytotoxicity assay, 3T3-L1. It is filed as cell-based. To be noted: under a concentration of 100 μM.
The target in data set [2] is T2, α-amylase from hog pancreas (EC 3.2.1.1) (Sus scrofa, UniProt P00690).
T2 sequence (P00690 16-511): T1 sequence (P00690 16-511)
Put plainly: α-amylase inhibition assay (starch, DNS, absorbance at 540 nm).
Description: All the compounds were dissolved in DMSO, and DMSO working concentration in the enzyme inhibition test was 5%.
Then, 100 μL starch solution (final concentration 0.5%) was added into the mixture and further incubated for 10 min. After 100 μL DNS (containing 1 M potassium sodium tartrate and 48 mM 3,5-dinitrosalicylic acid) was added, the mixture was boiled for 15 min. After diluting using 900 μL distilled water, the absorbance was measured at 540 nm. […] All experiments were carried out in quadruplicate.

The target in the next data set is T3, α-glucosidase (Saccharomyces cerevisiae, UniProt P53341).
T3 construct: purchased Sigma-Aldrich
Put plainly: Inhibition kinetics assay against α-glucosidase. It is filed as biochemical. How it is done: The α-glucosidase inhibition assay of analogs 4a–4s was carried out as in previously reported methods, with minor modifications ([Xu et al., 2020]). Then, 10 μL α-glucosidase and 10 μL test sample (dissolved in DMSO) were added into 130 μL PBS (50 mM phosphate saline buffer, pH 6.8) and incubated for 10 min at 37°C. After adding 50 μL pNPG, the absorbance change of the mixture at 405 nm was monitored. Then, the percent inhibition was calculated ([Ademiluyi and Oboh, 2013]). All experiments were carried out in quadruplicate.
as §1

[3] abbreviates: plots of enzymatic reaction rate vs. enzyme concentration pass through the origin.

This note sets out measurements from paper PMC9213889 (Frontiers in Chemistry, 2022).

T3 sequence (P53341 whole entry): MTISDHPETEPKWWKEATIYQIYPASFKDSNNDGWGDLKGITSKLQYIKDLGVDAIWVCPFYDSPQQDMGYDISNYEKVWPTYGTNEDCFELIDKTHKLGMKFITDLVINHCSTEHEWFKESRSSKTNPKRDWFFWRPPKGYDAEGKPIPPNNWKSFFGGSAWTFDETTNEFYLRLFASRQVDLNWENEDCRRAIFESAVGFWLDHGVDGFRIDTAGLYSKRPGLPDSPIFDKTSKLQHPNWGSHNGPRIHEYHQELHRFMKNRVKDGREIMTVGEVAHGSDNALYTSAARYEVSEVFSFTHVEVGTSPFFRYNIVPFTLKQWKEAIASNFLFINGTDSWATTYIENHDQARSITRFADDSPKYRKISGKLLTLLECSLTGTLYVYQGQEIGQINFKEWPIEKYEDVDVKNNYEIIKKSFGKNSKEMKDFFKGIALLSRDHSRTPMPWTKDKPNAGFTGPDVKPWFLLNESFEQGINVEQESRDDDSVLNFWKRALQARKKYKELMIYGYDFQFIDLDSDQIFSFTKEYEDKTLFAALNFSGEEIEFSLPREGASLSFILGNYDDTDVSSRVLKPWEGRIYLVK
Sequence of α-glucosidase from Saccharomyces cerevisiae (EC 3.2.1.20) (P53341 whole entry): as above

One may read the IC50 as the concentration at which inhibition is half-maximal. In general, melting point refers to the temperature of the solid-liquid transition. `CC1(C)CCC2(C(=O)O)CCC3(C)C(=CCC4C5(C)CC(=Cc6cccc(Br)c6)C(O)C(C)(C)C5CCC43C)C2C1` (centres unmarked) [Compound 4o] registered a melting point of 197 to 198 °C. For the same compound, the IC50 in data set [1] was 0.52 ± 0.02 µM. In addition, at α-amylase (Lineweaver–Burk plots, lines intersect in the first quadrant), the “Inhibition type against α-amylase” value is listed as “mixed-type inhibitor”. Besides, on α-amylase (setting [3]), the “Reversibility of inhibition on α-amylase” value is reported as “reversible”. In addition, in the data set on HepG2 cells, the “Cell cytotoxicity against HepG2 cells” value is “non-cytotoxic effect”. Further, the “Cell cytotoxicity against 3T3-L1 cells” value in the data set with 3T3-L1 cells was “non-cytotoxic effect”. This compound also had an IC50 in data set [2] of 9.59 ± 0.58 µM.
With `Cc1ccccc1/C=C1\C[C@@]2(C)C(CC[C@]3(C)C2CC=C2C4CC(C)(C)CC[C@]4(C(=O)O)CC[C@]23C)C(C)(C)[C@H]1O` (some centres unmarked) [Compound 4b], the melting point lay in the range of 210 to 211 °C. In addition, in data set [1], the IC50 was determined as 0.61 ± 0.09 µM. This compound yielded an IC50 in data set [2] of 19.8 ± 1.22 µM.
The like results for `CC1(C)CC[C@]2(C(=O)O)CC[C@]3(C)C(=CCC4[C@@]5(C)C/C(=C\c6cccc([N+](=O)[O-])c6)[C@H](O)C(C)(C)C5CC[C@]43C)C2C1` (some centres unmarked) [Compound 4r] were, in that order, 191 to 192 °C, 1.08 ± 0.04 µM and 20.8 ± 1.88 µM.
For `CC1(C)CC[C@]2(C(=O)O)CC[C@]3(C)C(=CCC4[C@@]5(C)C/C(=C\c6ccccc6F)[C@H](O)C(C)(C)C5CC[C@]43C)C2C1` (some centres unmarked) [Compound 4h] the same measures were 165 to 166 °C, 0.83 ± 0.04 µM and 18.5 ± 1.39 µM.
The like results for `CC1(C)CC[C@]2(C(=O)O)CC[C@]3(C)C(=CCC4[C@@]5(C)C/C(=C\c6ccccc6Br)[C@H](O)C(C)(C)C5CC[C@]43C)C2C1` (some centres unmarked) [Compound 4n] were, in that order, 234 to 235 °C, 0.72 ± 0.06 µM and 16.8 ± 1.04 µM.
`CC1(C)CC[C@]2(C(=O)O)CC[C@]3(C)C(=CCC4[C@@]5(C)C/C(=C\c6ccccc6Cl)[C@H](O)C(C)(C)C5CC[C@]43C)C2C1` (some centres unmarked) [Compound 4k]: the melting point lay within 219 to 220 °C. Besides, the half-inhibitory concentration (IC50) in data set [1] came out at 0.88 ± 0.04 µM. Further, in data set [2], the IC50 came to 45.4 ± 2.16 µM.
In the case of `CC1(C)CC[C@]2(C(=O)O)CC[C@]3(C)C(=CCC4[C@@]5(C)C/C(=C\c6ccccc6)[C@H](O)C(C)(C)C5CC[C@]43C)C2C1` (some centres unmarked) [Compound 4a], the IC50 came to 1.9 ± 0.31 µM in data set [1] and 41.2 ± 2.99 µM in data set [2].
Regarding `CC1(C)CC[C@]2(C(=O)O)CC[C@]3(C)C(=CCC4[C@@]5(C)C/C(=C\c6cccc(F)c6)[C@H](O)C(C)(C)C5CC[C@]43C)C2C1` (some centres unmarked) [Compound 4i], the melting point lay within 157 to 158 °C. In data set [1], the “α-glucosidase inhibition, times stronger than acarbose” value is recorded as ~1,663 times and the IC50 stood at 0.4 ± 0.02 µM. Moreover, the “Inhibition type against α-glucosidase” value on α-glucosidase (Lineweaver–Burk plots, lines intersect in the second quadrant) is “mixed-type inhibitor”. The “Reversibility of inhibition on α-glucosidase” value at α-glucosidase (setting [3]) was “reversible”. The “Cell cytotoxicity against HepG2 cells” value with HepG2 cells is given as “non-cytotoxic effect”. Besides, the “Cell cytotoxicity against 3T3-L1 cells” value in the data set on 3T3-L1 cells is “non-cytotoxic effect”. Also, it took 20.3 ± 2.18 µM to reach half-maximal inhibition in data set [2] (IC50).
For `Cc1ccc(/C=C2\C[C@@]3(C)C(CC[C@]4(C)C3CC=C3C5CC(C)(C)CC[C@]5(C(=O)O)CC[C@]34C)C(C)(C)[C@H]2O)cc1` (some centres unmarked) [Compound 4d], the melting point fell in the range of 146 to 147 °C. Also, the IC50 in data set [1] was 2.41 ± 0.08 µM. Further, the midpoint of inhibition in data set [2], the IC50, lay at 62.2 ± 1.89 µM.
The like results for `COc1ccc(/C=C2\C[C@@]3(C)C(CC[C@]4(C)C3CC=C3C5CC(C)(C)CC[C@]5(C(=O)O)CC[C@]34C)C(C)(C)[C@H]2O)cc1` (some centres unmarked) [Compound 4g] were, in that order, 296 to 297 °C, 3.96 ± 0.21 µM and 59.1 ± 1.98 µM.
`COc1ccccc1/C=C1\C[C@@]2(C)C(CC[C@]3(C)C2CC=C2C4CC(C)(C)CC[C@]4(C(=O)O)CC[C@]23C)C(C)(C)[C@H]1O` (some centres unmarked) [Compound 4e] gave a melting point of 200 to 201 °C. In addition, in data set [1], the IC50 amounted to 1.92 ± 0.13 µM. For the same compound, the IC50 in data set [2] turned out to be 20.5 ± 2.29 µM.
For `CC1(C)CC[C@]2(C(=O)O)CC[C@]3(C)C(=CCC4[C@@]5(C)C/C(=C\c6ccccc6[N+](=O)[O-])[C@H](O)C(C)(C)C5CC[C@]43C)C2C1` (some centres unmarked) [Compound 4q] the same measures were 197 to 198 °C, 1.17 ± 0.1 µM and 20.2 ± 1.2 µM.
The like results for `CC1(C)CC[C@]2(C(=O)O)CC[C@]3(C)C(=CCC4[C@@]5(C)C/C(=C\c6cccc(Cl)c6)[C@H](O)C(C)(C)C5CC[C@]43C)C2C1` (some centres unmarked) [Compound 4l] were, in that order, 242 to 243 °C, 0.45 ± 0.02 µM and 19.4 ± 0.73 µM.
For `CC1(C)CC[C@]2(C(=O)O)CC[C@]3(C)C(=CCC4[C@@]5(C)C/C(=C\c6ccc(F)cc6)[C@H](O)C(C)(C)C5CC[C@]43C)C2C1` (some centres unmarked) [Compound 4j] the same measures were 226 to 227 °C, 1.23 ± 0.07 µM and 15.7 ± 1.53 µM.
Regarding `Cc1cccc(/C=C2\C[C@@]3(C)C(CC[C@]4(C)C3CC=C3C5CC(C)(C)CC[C@]5(C(=O)O)CC[C@]34C)C(C)(C)[C@H]2O)c1` (some centres unmarked) [Compound 4c], the melting point was in the range of 128 to 129 °C. Besides, the 50% inhibitory concentration (IC50) in data set [1] came out at 0.86 ± 0.05 µM. In data set [2], this compound came in with a concentration for half-maximal inhibition (IC50) of 51.1 ± 2.55 µM.
`CC1(C)CC[C@]2(C(=O)O)CC[C@]3(C)C(=CCC4[C@@]5(C)C/C(=C\c6ccc([N+](=O)[O-])cc6)[C@H](O)C(C)(C)C5CC[C@]43C)C2C1` (some centres unmarked) [Compound 4s] came in with a melting point of 219 to 220 °C. Also, in data set [1], the half-maximal inhibitory concentration (IC50) was 1.22 ± 0.14 µM. In data set [2], this compound came in with an IC50 of 55.6 ± 2.52 µM.
Consider `COc1cccc(/C=C2\C[C@@]3(C)C(CC[C@]4(C)C3CC=C3C5CC(C)(C)CC[C@]5(C(=O)O)CC[C@]34C)C(C)(C)[C@H]2O)c1` (some centres unmarked) [Compound 4f], for which the melting point is 200 to 201 °C. Further, the half-maximal inhibitory concentration (IC50) in data set [1] is 1.63 ± 0.1 µM. Moreover, half-maximal inhibition in data set [2] (IC50) was put at 60.3 ± 1.88 µM.
For `CC1(C)CC[C@]2(C(=O)O)CC[C@]3(C)C(=CCC4[C@@]5(C)C/C(=C\c6ccc(Cl)cc6)[C@H](O)C(C)(C)C5CC[C@]43C)C2C1` (some centres unmarked) [Compound 4m] the same measures were 196 to 197 °C, 1.73 ± 0.16 µM and 20.5 ± 1.09 µM.
The like results for `CC1(C)CC[C@]2(C(=O)O)CC[C@]3(C)C(=CCC4[C@@]5(C)C/C(=C\c6ccc(Br)cc6)[C@H](O)C(C)(C)C5CC[C@]43C)C2C1` (some centres unmarked) [Compound 4p] were, in that order, 224 to 225 °C, 1.18 ± 0.14 µM and 19.5 ± 1.85 µM.
